# Laboratory results reported in US10322131B2, “Hydroxyacid derivatives, a process for their preparation and pharmaceutical compositions containing them” (LES LABORATOIRES SERVIER, priority 2015, dated 2019).
# Biological target: Mcl-1 protein (Homo sapiens, UniProt Q07820)
# Assay: Inhibition of Mcl-1 by the fluorescence polarisation technique
# Type: binding
# Conditions: fluorescence polarisation test; Fluorescein labelled ligand 1 nM, Mcl-1 protein 5 nM, ~2 hours at r.t.; read-out: IC50 (M) Mcl-1 FP
# Experimental: The relative binding potency of each compound was determined via Fluorescence Polarisation (FP). The method utilised a Fluorescein labelled ligand (Fluorescein-βAla-Ahx-A-REIGAQLRRMADDLNAQY-OH; mw 2,765) which binds to the Mcl-1 protein (such that Mcl-1 corresponds to the UniProtKB® primary accession number: Q07820) leading to an increased anisotropy measured in milli-polarisation (mP) units using a reader. The addition of a compound which binds competitively to the same site as the ligand will result in a greater proportion of unbound ligand in the system indicated by a decrease in mP units.
# An 11 point serial dilution of each compound was prepared in DMSO and 2 μl transferred into flat bottomed, low binding, 384-well plate (final DMSO concentration 5%). 38 μl of buffer (10 mM 4-(2-hydroxyethyl)-1-piperazineethanesulfonic acid [HEPES], 150 mM NaCl, 0.05% Tween 20, pH 7.4), containing the Fluorescein labelled ligand (final concentration 1 nM) and Mcl-1 protein (final concentration 5 nM) was then added.
# Assay plates were incubated ˜2 hours at r.t. before FP was measured on a Biomek Synergy2 reader (Ex. 528 nm, Em. 640 nm, Cut off 510 nm) and mP units calculated. The binding of increasing doses of test compound was expressed as a percentage reduction in mP compared to a window established between ‘5% DMSO only’ and ‘100% inhibition’ controls. 11-point dose response curves were plotted with XL-Fit software using a 4-Parameter Logistic Model (Sigmoidal Dose-Response Model) and the inhibitory concentrations that gave a 50% reduction in mP (IC50) were determined.
# Sequence of Mcl-1 protein (Q07820 whole entry): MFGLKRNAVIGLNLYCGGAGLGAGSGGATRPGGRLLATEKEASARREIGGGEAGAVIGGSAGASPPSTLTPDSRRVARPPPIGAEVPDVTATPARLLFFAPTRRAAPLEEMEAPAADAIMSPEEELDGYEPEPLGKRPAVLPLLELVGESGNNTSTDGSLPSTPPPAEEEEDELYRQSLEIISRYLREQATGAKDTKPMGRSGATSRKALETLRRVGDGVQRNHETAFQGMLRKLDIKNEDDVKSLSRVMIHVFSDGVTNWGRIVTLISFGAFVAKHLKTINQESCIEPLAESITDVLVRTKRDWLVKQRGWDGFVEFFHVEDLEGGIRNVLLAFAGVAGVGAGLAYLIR
row,Compound,IC50 [M]
1,"Cc1c(-c2c(-c3ccc(F)cc3)sc3ncnc(OC(Cc4ccccc4OCc4ccnc(-c5cccc(OCCN(CCO)CCO)c5)n4)C(=O)O)c23)ccc(OCCN2CCN(C)CC2)c1Cl [Example 49, (2R)-3-(2-{[2-(3-{2-[bis(2-hydroxyethyl)amino]ethoxy}phenyl)pyrimidin-4-yl]methoxy}phenyl)-2-{[(5Sa)-5-{3-chloro-2-methyl-4-[2-(4-methylpiperazin-1-yl)ethoxy]phenyl}-6-(4-fluorophenyl)thieno[2,3-d]pyrimidin-4-yl]oxy}propanoic acid]",4.65e-09
2,"CCOC(=O)OC(C)OC(=O)C(Cc1ccccc1OCc1ccnc(-c2cccc(OC(COC)COC)c2)n1)Oc1ncnc2sc(-c3ccc(F)cc3)c(-c3ccc(OCCN4CCN(C)CC4)c(Cl)c3C)c12 [Example 69, 1-[(ethoxycarbonyl)oxy]ethyl (2R)-2-{[(5Sa)-5-{3-chloro-2-methyl-4-[2-(4-methylpiperazin-1-yl)ethoxy]phenyl}-6-(4-fluorophenyl)thieno[2,3-d]pyrimidin-4-yl]oxy}-3-{2-[(2-{3-[(1,3-dimethoxypropan-2-yl)oxy]phenyl}pyrimidin-4-yl)methoxy]phenyl}propanoate]",7.6e-08
3,"Cc1c(-c2c(-c3ccc(F)cc3)sc3ncnc(OC(Cc4ccccc4OCc4ccnc(-c5ccc(OCCN(CCO)CCO)cc5)n4)C(=O)O)c23)ccc(OCCN2CCN(C)CC2)c1Cl [Example 53, (2R)-3-(2-{[2-(4-{2-[bis(2-hydroxyethyl)amino]ethoxy}phenyl)pyrimidin-4-yl]methoxy}phenyl)-2-{[(5Sa)-5-{3-chloro-2-methyl-4-[2-(4-methylpiperazin-1-yl)ethoxy]phenyl}-6-(4-fluorophenyl)thieno[2,3-d]pyrimidin-4-yl]oxy}propanoic acid]",4.65e-09
4,"Cc1c(-c2c(-c3ccc(F)cc3)sc3ncnc(OC(Cc4ccccc4OCc4ccnc(-c5cncc(CO)c5)n4)C(=O)O)c23)ccc(OCCN2CCN(C)CC2)c1Cl [Example 79, (2R)-2-{[(5Sa)-5-{3-chloro-2-methyl-4-[2-(4-methylpiperazin-1-yl)ethoxy]phenyl}-6-(4-fluorophenyl)thieno[2,3-d]pyrimidin-4-yl]oxy}-3-[2-({2-[5-(hydroxymethyl)pyridin-3-yl]pyrimidin-4-yl}methoxy)phenyl]propanoic acid]",7.6e-09
5,"(2R)-2-{[(5Sa)-5-{2,3-dimethyl-4-[2-(4-methylpiperazin-1-yl)ethoxy]phenyl}-6-(4-fluorophenyl)thieno[2,3-d]pyrimidin-4-yl]oxy}-3-{2-[(2-{3-[({[2-(piperidin-1-yl)ethyl]carbamoyl}oxy)methyl]phenyl}pyrimidin-4-yl)methoxy]phenyl}propanoic acid [Example 50]",6.6e-09
6,"Cc1c(-c2c(-c3ccc(F)cc3)sc3ncnc(OC(Cc4ccccc4OCc4ccnc(-c5cccc(OCCN(C)C)c5)n4)C(=O)O)c23)ccc(OCCN2CCN(C)CC2)c1Cl [Example 52, (2R)-2-{[(5Sa)-5-{3-chloro-2-methyl-4-[2-(4-methylpiperazin-1-yl)ethoxy]phenyl}-6-(4-fluorophenyl)thieno[2,3-d]pyrimidin-4-yl]oxy}-3-{2-[(2-{3-[2-(dimethylamino)ethoxy]phenyl}pyrimidin-4-yl)methoxy]phenyl}propanoic acid]",3.7e-09
7,"Cc1c(-c2c(-c3ccc(F)cc3)sc3ncnc(OC(Cc4ccccc4OCc4ccnc(-c5cnc(CO)nc5)n4)C(=O)O)c23)ccc(OCCN2CCN(C)CC2)c1Cl [Example 82, (2R)-2-{[(5Sa)-5-{3-chloro-2-methyl-4-[2-(4-methylpiperazin-1-yl)ethoxy]phenyl}-6-(4-fluorophenyl)thieno[2,3-d]pyrimidin-4-yl]oxy}-3-(2-{[2′-(hydroxymethyl)-2,5′-bipyrimidin-4-yl]methoxy}phenyl)propanoic acid]",7.7e-09

# The remaining compounds from weak to strong by IC50, led by results:
row,IC50 [M],Compound
1,6.35e-09,"Cc1c(-c2c(-c3ccc(F)cc3)sc3ncnc(OC(Cc4ccccc4OCc4ccnc(-c5ccc(OCC6COC(C)(C)O6)cc5)n4)C(=O)O)c23)ccc(OCCN2CCN(C)CC2)c1Cl [Example 55, (2R)-2-{[(5Sa)-5-{3-chloro-2-methyl-4-[2-(4-methylpiperazin-1-yl)ethoxy]phenyl}-6-(4-fluorophenyl)thieno[2,3-d]pyrimidin-4-yl]oxy}-3-{2-[(2-{4-[(2,2-dimethyl-1,3-dioxolan-4-yl)methoxy]phenyl}pyrimidin-4-yl)methoxy]phenyl}propanoic acid]"
2,4.75e-09,"Cc1c(-c2c(-c3ccc(F)cc3)sc3ncnc(OC(Cc4ccccc4OCc4ccnc(-c5ccc(OCCN6CCOCC6)cc5)n4)C(=O)O)c23)ccc(OCCN2CCN(C)CC2)c1Cl [Example 56, (2R)-2-{[(5Sa)-5-{3-chloro-2-methyl-4-[2-(4-methylpiperazin-1-yl)ethoxy]phenyl}-6-(4-fluorophenyl)thieno[2,3-d]pyrimidin-4-yl]oxy}-3-{2-[(2-{4-[2-(morpholin-4-yl)ethoxy]phenyl}pyrimidin-4-yl)methoxy]phenyl}propanoic acid]"
3,4.6e-09,"Cc1c(-c2c(-c3ccc(F)cc3)sc3ncnc(OC(Cc4ccccc4OCc4ccnc(-c5ccc(OCCOCCOCCO)cc5)n4)C(=O)O)c23)ccc(OCCN2CCN(C)CC2)c1Cl [Example 54, (2R)-2-{[(5Sa)-5-{3-chloro-2-methyl-4-[2-(4-methylpiperazin-1-yl)ethoxy]phenyl}-6-(4-fluorophenyl)thieno[2,3-d]pyrimidin-4-yl]oxy}-3-(2-{[2-(4-{2-[2-(2-hydroxyethoxy)ethoxy]ethoxy}phenyl)pyrimidin-4-yl]methoxy}phenyl)propanoic acid]"
4,4.15e-09,"Cc1c(-c2c(-c3ccc(F)cc3)sc3ncnc(OC(Cc4ccccc4OCc4ccnc(-c5cccc(OCCN6CCOCC6)c5)n4)C(=O)O)c23)ccc(OCCN2CCN(C)CC2)c1Cl [Example 51, (2R)-2-{[(5Sa)-5-{3-chloro-2-methyl-4-[2-(4-methylpiperazin-1-yl)ethoxy]phenyl}-6-(4-fluorophenyl)thieno[2,3-d]pyrimidin-4-yl]oxy}-3-{2-[(2-{3-[2-(morpholin-4-yl)ethoxy]phenyl}pyrimidin-4-yl)methoxy]phenyl}propanoic acid]"
5,4.05e-09,"Cc1c(-c2c(-c3ccc(F)cc3)sc3ncnc(OC(Cc4ccccc4OCc4ccnc(-c5cccc(CO)c5)n4)C(=O)O)c23)ccc(OCCN2CCN(C)CC2)c1Cl [Example 3, (2R)-2-{[(5Sa)-5-{3-chloro-2-methyl-4-[2-(4-methylpiperazin-1-yl)ethoxy]phenyl}-6-(4-fluorophenyl)thieno[2,3-d]pyrimidin-4-yl]oxy}-3-[2-({2-[3-(hydroxymethyl)phenyl]pyrimidin-4-yl}methoxy)phenyl]propanoic acid]"
6,3.85e-09,"COCCOCCOCCOc1cccc(-c2nccc(COc3ccccc3CC(Oc3ncnc4sc(-c5ccc(F)cc5)c(-c5ccc(OCCN6CCN(C)CC6)c(Cl)c5C)c34)C(=O)O)n2)c1 [Example 48, (2R)-2-{[(5Sa)-5-{3-chloro-2-methyl-4-[2-(4-methylpiperazin-1-yl)ethoxy]phenyl}-6-(4-fluorophenyl)thieno[2,3-d]pyrimidin-4-yl]oxy}-3-(2-{[2-(3-{2-[2-(2-methoxyethoxy)ethoxy]ethoxy}phenyl)pyrimidin-4-yl]methoxy}phenyl)propanoic acid]"

# System: H929 cells
# Assay: In vitro cytotoxicity (MTT) on H929 multiple myeloma tumour line
# Type: cell-based
# Conditions: Homo sapiens, NCI-H929, exposed 48 hours, Microculture Tetrazolium Assay
# Experimental: The cytotoxicity studies were carried out on the H929 multiple myeloma tumour line.
# The cells are distributed onto microplates and exposed to the test compounds for 48 hours.
# The cell viability is then quantified by a colorimetric assay, the Microculture Tetrazolium Assay (Cancer Res., 1987, 47, 939-942).
row,Compound,IC50 [nM]
1,"Cc1c(-c2c(-c3ccc(F)cc3)sc3ncnc(OC(Cc4ccccc4OCc4ccnc(-c5cccc(CO)c5)n4)C(=O)O)c23)ccc(OCCN2CCN(C)CC2)c1Cl [Example 3, (2R)-2-{[(5Sa)-5-{3-chloro-2-methyl-4-[2-(4-methylpiperazin-1-yl)ethoxy]phenyl}-6-(4-fluorophenyl)thieno[2,3-d]pyrimidin-4-yl]oxy}-3-[2-({2-[3-(hydroxymethyl)phenyl]pyrimidin-4-yl}methoxy)phenyl]propanoic acid]",4.08
